Source: patent publication US5466675A, “Immunological activity of rhamnolipids” (priority 1992, dated 1995)

Key:
[1] = tested on: oxazolone-induced delayed type hypersensitivity; experiment: immunostimulation (cellular): oxazolone-induced delayed type hypersensitivity; assay type: in vivo, mouse; conditions: IP 100 × 5 mg/kg
Procedure: The test substance was administered i.p to groups of 5 mice, 1 hour before application (sensitization) of oxazolone (0.1 ml of 5% solution) to the pre-shaven abdominal surface. Seven days later, 25 μl of a 2% solution of oxazolone was applied (challenge) to the right ear, with vehicle being applied to the left ear. After 24 hours, each mouse was sacrificed and ear thickness measured with a Dyer Model micrometer gauge. Greater than 30 percent enhancement is considered immunostimulant activity.

Candida albicans [2] = experiment: immunorestoration: immunosuppression with cyclophosphamide and infection with Candida albicans; assay type: in vivo, mouse (ICR, female); conditions: for Survivor No.: n = 10
Source text: […] One day after the last immunosuppressant dose, the mice were challenged with a suspension of C. albicans sufficient to result in 90 to 100 percent mortality within 10 days in the vehicle treated control group. A greater than 30 percent survival for any drug treated group is considered significant, and possibly a result of immunorestorant activity.

phospholipase A2 = conditions: Japanese patent No. 63 253 025; cited from earlier work
[3] = tested on: oxazolone-induced delayed type hypersensitivity; experiment: immunosuppression (cellular): oxazolone-induced delayed type hypersensitivity; assay type: in vivo, mouse (ICR, female); conditions: IP 30 × 5 mg/kg
Procedure: The shaved abdominal surface of groups of 5 mice were sensitized by application of 0.1 ml of 5% oxazolone. The test substance was administered i.p after 1 hour and then daily for 5 consecutive doses. After an additional 4 days, the animals were challenged by application of 25 ul of 5% oxazolone to the right ear. Twenty-four hours later, ear thickness was measured with a Dyer Model micrometer gauge.
A 50 percent or greater decrease in drug-treated versus control animals is considered significant immunosuppressant activity.

[4] = tested on: sheep red blood cell (SRBC) hemagglutination; experiment: immunosuppression (humoral): sheep red blood cell (SRBC) hemagglutination; assay type: in vivo, mouse (ICR, female); conditions: IP 30 × 3 mg/kg
Procedure: (§1) Groups of 6 mice were sensitized by the IV injection of 0.2 ml of a 2% SRBC suspension. On the 9th day following sensitization, blood samples were withdrawn from the orbital sinus and equal parts of complement inactivated serum from the group of 6 mice were pooled to yield a single 0.25 ml sample. Serial 2-fold dilutions were then carried out 10 times in the presence of added complement. […] Serum titers of less than 16 or greater than 128 are considered significant and indicate possible immunosuppressant and immunostimulant activity, respectively.
(§2) For immunostimulant activity, test substance or vehicle was administered i.p. to groups of mice for 3 consecutive days, and sensitized to SRBCs 2 hours after the third (last) injection. For immunosuppressant activity, test substance or vehicle was administered i.p. to groups of mice for 3 consecutive days beginning 2 hours after sensitization to SRBCs.

[5] = tested on: sheep red blood cell (SRBC) hemagglutination; experiment: immunostimulation (humoral): sheep red blood cell (SRBC) hemagglutination; assay type: in vivo, mouse (ICR, female); conditions: IP 30 × 3 mg/kg
Procedure: as §1, §2

Candida albicans [6] = experiment: immunomodulation: infection with Candida albicans; assay type: in vivo, mouse (ICR, female); conditions: IP 30 mg/kg
Procedure: The test compound or vehicle was administered i.p. to groups of 10 mice 1 hour before IV, challenge with suspension of C. albicans sufficient to result in 90 to 100% mortality within 10 days in the vehicle treated control group. A greater than 30 percent survival for any treated group is considered very significant, and possibly a result of immunomodulation, while an increase of 20% is considered a moderate immunomodulation activity.

[7] = IP 100 × 3 mg/kg + cyclophosphamide
[8] = cyclophosphamide alone, PO 30 × 3 mg/kg

Compound: CC(C)(N1CC1C#N)N1CC1C(N)=O (stereo not shown) [Azimexone, reference compound]
- Swelling Inc. % [1]: 31%
- Swelling (R -L) ([1]; X ± SEM): 22.8 +/- 0.9 × 0.01 mm
- ear thickness, Left Ear (No Oxa.) ([1]; X ± SEM): 21.4 +/- 0.5 × 0.01 mm
- ear thickness, Right Ear (24 hrs Oxa.) ([1]; X ± SEM): 44.2 +/- 0.7 × 0.01 mm
- Death, days post-inoculum 0-1 (Candida albicans [2]; [7]): 2 #/10 Mice
- Death, days post-inoculum 2-3 (Candida albicans [2]; [7]): 1 #/10 Mice
- Death, days post-inoculum 4-6 (Candida albicans [2]; [7]): 1 #/10 Mice
- Death, days post-inoculum 7-9 (Candida albicans [2]; [7]): 1 #/10 Mice
- Response Inc. % (Candida albicans [2]; [7]): 30%
- Survivor No. (Candida albicans [2]; [7]): 5

Compound: rhamnopyranosyldecanoic acid
- phospholipase A2 inhibition (phospholipase A2): phospholipase A2 inhibition

Compound: O=P1(N(CCCl)CCCl)NCCCO1 (stereo not shown) [Cyclophosphamide, reference compound]
- Swelling Inh. % [3]: 59%
- Swelling (R -L) ([3]; X +/- SEM): 10.6 +/- 1.8 × 0.01 mm
- ear thickness, Left Ear (No Oxa.) ([3]; X +/- SEM): 19.0 +/- 0.4 × 0.01 mm
- ear thickness, Right Ear (24 hrs Oxa.) ([3]; X +/- SEM): 29.6 +/- 2.2 × 0.01 mm
- SERUM TITER (Reciprocal Serum Dilution) [4]: 4
- Death, days post-inoculum 0-1 (Candida albicans [2]; [8]): 3 #/10 Mice
- Death, days post-inoculum 2-3 (Candida albicans [2]; [8]): 2 #/10 Mice
- Death, days post-inoculum 4-6 (Candida albicans [2]; [8]): 2 #/10 Mice
- Death, days post-inoculum 7-9 (Candida albicans [2]; [8]): 1 #/10 Mice
- Survivor No. (Candida albicans [2]; [8]): 2

Compound: c1ccc([C@H]2CN3CCSC3=N2)cc1 [Levamisole, reference compound]
- SERUM TITER (Reciprocal Serum Dilution) [5]: 128
- Death, days post-inoculum 0-1 (Candida albicans [6]): 3 #/10 Mice
- Death, days post-inoculum 2-3 (Candida albicans [6]): 3 #/10 Mice
- Death, days post-inoculum 4-6 (Candida albicans [6]): 0 #/10 Mice
- Death, days post-inoculum 7-9 (Candida albicans [6]): 0 #/10 Mice
- Response Inc. % (Candida albicans [6]): 20%
- Survivor No. (Candida albicans [6]; n = 10): 4
